According to patent US8119624B2, “Fused phenyl amido heterocyclic compounds” (Pfizer Inc., priority 2006, dated 2012):
Read-outs that look alike come from different tables or passages of the source.

Biological target: T1, Full-length glucokinase (beta cell isoform) (Homo sapiens, UniProt P35557)
T1 construct: Full-length glucokinase (beta cell isoform) was His-tagged at N-terminus; His tag (N); made in house
T1 sequence (P35557 1-465): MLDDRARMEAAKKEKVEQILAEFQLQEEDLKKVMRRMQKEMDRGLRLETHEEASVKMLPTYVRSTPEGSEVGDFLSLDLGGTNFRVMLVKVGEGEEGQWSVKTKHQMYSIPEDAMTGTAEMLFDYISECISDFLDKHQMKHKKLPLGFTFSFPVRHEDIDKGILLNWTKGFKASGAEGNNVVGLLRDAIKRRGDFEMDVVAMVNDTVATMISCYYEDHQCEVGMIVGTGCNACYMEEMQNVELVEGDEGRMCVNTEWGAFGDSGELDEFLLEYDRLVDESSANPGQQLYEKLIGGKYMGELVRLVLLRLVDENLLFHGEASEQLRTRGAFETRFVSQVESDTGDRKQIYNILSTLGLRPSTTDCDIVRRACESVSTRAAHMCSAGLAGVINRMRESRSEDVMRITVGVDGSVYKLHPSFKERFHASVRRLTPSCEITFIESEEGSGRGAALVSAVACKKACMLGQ
Assay: Glucokinase biochemical assay (PK/LDH-coupled, NADH depletion at 340 nm): % activation, EC50, % max activation
Conditions: 5 mM glucose; for EC50: read-out: EC50; for activation at 10 µM: read-out: % Activation at 10 uM; for Emax: read-out: % Max Activation
Summary of the method: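 Activation expressed as (Va/Vo−1)×100, where initial rates with and without compound come from NADH depletion at 340 nm over 200–900 s. Enzyme is His-tagged human beta-cell GK, full length, run at room temperature in HEPES buffer with 1 mM ATP and 5 mM glucose. DMSO 1%.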

[1] = 10 uM compound, % Activation=(Va/Vo−1)×100
[2] = compound at 10 uM, 1 mM ATP, room temperature
[3] = fitted maximum activation, 1 mM ATP

| EC50 (GK activation) [µM] | activation at 10 µM [1] [%] | Emax (fitted maximum activation) [%] | SMILES | other results |
| --- | --- | --- | --- | --- |
| 0.21 |  |  | COCC1(C)Cc2c(Oc3ccc(C(=O)N4CCC4)c(F)c3)cc(C(=O)Nc3ccn(C)n3)cc2O1 (single isomer, unassigned; (+)) [Example 244, (+)-4-[4-(Azetidine-1-carbonyl)-3-fluoro-phenoxy]-2-methoxymethyl-2-methyl-2,3-dihydro-benzofuran-6-carboxylic acid (1-methyl-1H-pyrazol-3-yl)-amide] | % Activation at 10 uM [1]: 287%; % Max Activation (fitted maximum activation): 234% |
| 0.42 | 90.8 | 94.5 | COCC1Cc2c(Oc3ccc(C(=O)N(C)C)c(F)c3)cc(C(=O)Nc3ccn(C)n3)cc2O1 (stereo not drawn) [Example 205, 4-(4-Dimethylcarbamoyl-3-fluoro-phenoxy)-2-methoxymethyl-2,3-dihydro-benzofuran-6-carboxylic acid (1-methyl-1H-pyrazol-3-yl)-amide] |  |
|  | 16.7 |  | CC(C)Oc1cc(C(=O)Nc2ccn(C)n2)cc2c1CC(CO)O2 (stereo not drawn) [Example 215, 2-Hydroxymethyl-4-isopropoxy-2,3-dihydro-benzofuran-6-carboxylic acid (1-methyl-1H-pyrazol-3-yl)-amide] |  |
|  |  |  | CCN1Cc2c(Oc3ccc(S(C)(=O)=O)cc3)cc(C(=O)Nc3ccc(C)cn3)cc2C1=O [Example 379, 2-Ethyl-N-(5-methylpyridin-2-yl)-7-(4-(methylsulfonyl)-phenoxy)-3-oxoisoindoline-5-carboxamide] | EC50 (1 mM ATP, room temperature): 4.5 µM; activation at 10 µM [2]: 74.1%; Emax [3]: 98% |
| 5.5 | 86.1 | 218 | COc1cnc(NC(=O)c2cc(Oc3ccc(S(C)(=O)=O)cn3)c3cc(C)oc3c2)cn1 [Example 284, N-(5-Methoxypyrazin-2-yl)-2-methyl-4-(5-(methylsulfonyl)-pyridin-2-yloxy)-benzofuran-6-carboxamide] |  |
| 0.45 | 194 | 203 | CNC(=O)c1ncc(Oc2cc(C(=O)Nc3ccn(C)n3)cc3c2CC(C)(C)O3)cc1F [Example 176, 5-[2,2-Dimethyl-6-(1-methyl-1H-pyrazol-3-ylcarbamoyl)-2,3-dihydro-benzofuran-4-yloxy]-3-fluoro-pyridine-2-carboxylic acid methylamide] |  |
| 0.09 | 38.4 | 43 | CN(C)C(=O)c1ccc(Oc2cc(C(=O)Nc3ccc(CO)cn3)cc3c2CC(C)(C)O3)cc1 [Example 155, 4-(4-Dimethylcarbamoyl-phenoxy)-2,2-dimethyl-2,3-dihydro-benzofuran-6-carboxylic acid (5-hydroxymethyl-pyridin-2-yl)-amide] |  |
| 0.105 | 145 | 145 | Cn1ccc(NC(=O)c2cc(Oc3ccc(C(=O)N4CCC4)cc3)c3c(c2)OC(C)(C)C3)n1 [Example 35, 4-[4-(Azetidine-1-carbonyl)-phenoxy]-2,2-dimethyl-2,3-dihydro-benzofuran-6-carboxylic acid(1-methyl-1H-pyrazol-3-yl)-amide] |  |
|  | 6.4 |  | CN(C)C(=O)c1ccc(Oc2cc(C(=O)Nc3ccn(C)n3)cc3ccsc23)cc1F [Example 366, 7-(4-(Dimethylcarbamoyl)-3-fluorophenoxy)-N-(1-methyl-1H-pyrazol-3-yl)benzo[b]thiophene-5-carboxamide] |  |
| 0.33 | 185 | 186 | Cc1cc2c(Oc3ccc(S(=O)(=O)N(C)C)c(F)c3)cc(C(=O)Nc3cnn(C)n3)cc2o1 [Example 306, 4-{4-[(Dimethylamino)sulfonyl]-3-fluorophenoxy}-2-methyl-N-(2-methyl-2H-1,2,3-triazol-4-yl)-1-benzofuran-6-carboxamide] |  |
| 1.7 | 91.2 | 119 | Cn1ccc(NC(=O)c2cc(Oc3ccc(C(=O)N4CCC4)cc3)c3c(c2F)OC(C)(C)C3)n1 [Example 191, 4-[4-(Azetidine-1-carbonyl)-phenoxy]-7-fluoro-2,2-dimethyl-2,3-dihydro-benzofuran-6-carboxylic acid (1-methyl-1H-pyrazol-3-yl)-amide] |  |
| 0.37 | 122 | 129 | CNC(=O)c1ccc(Oc2cc(C(=O)Nc3ccn(C)n3)cc3c2CC(C)(C)O3)cc1F [Example 69, 4-(3-Fluoro-4-methylcarbamoyl-phenoxy)-2,2-dimethyl-2,3-dihydro-benzofuran-6-carboxylic acid(1-methyl-1H-pyrazol-3-yl)-amide] |  |
| 0.0553 | 148 | 146 | Cn1ccc(NC(=O)c2cc(Oc3ccc(C(=O)N4CCC4)nc3)c3c(c2)OC(C)(C)C3)n1 [Example 167, 4-[6-(Azetidine-1-carbonyl)-pyridin-3-yloxy]-2,2-dimethyl-2,3-dihydro-benzofuran-6-carboxylic acid (1-methyl-1H-pyrazol-3-yl)-amide] |  |
| 0.2 | 122 | 132 | Cc1cc2c(Oc3ccc(S(=O)(=O)N4CCC4)cc3)cc(C(=O)Nc3ccn(C)n3)cc2o1 [Example 294, 4-(4-(Azetidin-1-ylsulfonyl)phenoxy)-2-methyl-N-(1-methyl-1H-pyrazol-3-yl)benzofuran-6-carboxamide] |  |
| 8.8 | 79.7 | 141 | Cn1ccc(NC(=O)c2cc(Oc3cc(F)ccc3S(C)(=O)=O)c3c(c2)OC(C)(C)C3)n1 [Example 115, 4-(5-Fluoro-2-methanesulfonyl-phenoxy)-2,2-dimethyl-2,3-dihydro-benzofuran-6-carboxylic acid (1-methyl-1H-pyrazol-3-yl)-amide] |  |
| 0.175 | 191 | 143 | CN(C)C(=O)c1ccc(Oc2cc(C(=O)Nc3ccn(C)n3)cc3c2CC(C)(C)O3)cn1 [Example 161, 5-[2,2-Dimethyl-6-(1-methyl-1H-pyrazol-3-ylcarbamoyl)-2,3-dihydro-benzofuran-4-yloxy]-pyridine-2-carboxylic acid dimethylamide] |  |
|  | 15 |  | Cc1ccc(NC(=O)c2cc(Oc3ccc(C(=O)N(C)C)c(F)c3)c3ccoc3c2)nc1 [Example 342, 4-(4-(Dimethylcarbamoyl)-3-fluorophenoxy)-N-(5-methylpyridin-2-yl)benzofuran-6-carboxamide] |  |
| 1.4 | 111 | 119 | Cc1cc2c(Oc3ccc(S(C)(=O)=O)cc3)cc(C(=O)Nc3ccccn3)cc2o1 [Example 257, 2-Methyl-4-(4-(methylsulfonyl)phenoxy)-N-(pyridin-2-yl)-benzofuran-6-carboxamide] |  |
| 7.8 | 73.8 | 133 | COc1ccnc(NC(=O)c2cc(Oc3ccc(S(C)(=O)=O)cc3)c3cc(C(=O)N(C)C)oc3c2)c1 [Example 289, N6-(4-Methoxypyridin-2-yl)-N2,N2-dimethyl-4-[4-(methylsulfonyl)phenoxy]-1-benzofuran-2,6-dicarboxamide] |  |
| 0.19 | 69.9 | 70 | Cc1ccc(NC(=O)c2cc(Oc3ccc(S(C)(=O)=O)cc3)c3cc(C)sc3c2)nc1 [Example 359, 4-(4-Methanesulfonyl-phenoxy)-2-methyl-benzo[b]thiophene-6-carboxylic acid (5-methyl-pyridin-2-yl)-amide] |  |
| 2.4 | 143 | 141 | Cc1ncccc1COc1cc(C(=O)Nc2ccn(C)n2)cc2c1CC(C)(C)O2 [Example 106, 2,2-Dimethyl-4-(2-methyl-pyridin-3-ylmethoxy)-2,3-dihydro-benzofuran-6-carboxylic acid (1-methyl-1H-pyrazol-3-yl)-amide] |  |
| 0.038 | 76.8 | 57 | Cc1ccc(NC(=O)c2cc(Oc3ccc(C(=O)N(C)C)nc3)c3c(c2)OC(C)(C)C3)nc1 [Example 165, 5-[2,2-Dimethyl-6-(5-methyl-pyridin-2-ylcarbamoyl)-2,3-dihydro-benzofuran-4-yloxy]-pyridine-2-carboxylic acid dimethylamide] |  |
| 0.14 | 166 | 168 | Cc1cc2c(Oc3ccc(S(=O)(=O)N(C)C)c(F)c3)cc(C(=O)Nc3ccn(C)n3)cc2o1 [Example 305, 4-{4-[(Dimethylamino)sulfonyl]-3-fluorophenoxy}-2-methyl-N-(1-methyl-1H-pyrazol-3-yl)-1-benzofuran-6-carboxamide] |  |
|  |  |  | Cn1ccc(NC(=O)c2cc(Oc3cnc(C(=O)N4CCC4)cn3)c3c(c2)OC(C)(C)C3)n1 [Example 396, 4-[5-(Azetidine-1-carbonyl)-pyrazin-2-yloxy]-2,2-dimethyl-2,3-dihydro-benzofuran-6-carboxylic acid(1-methyl-1H-pyrazol-3-yl)-amide] | EC50 (1 mM ATP, room temperature): 0.36 µM; activation at 10 µM [2]: 204%; Emax [3]: 212% |
